Assay results taken from ChEMBL document CHEMBL1128253, “Synthesis and anti-HIV-1 activity of 4,5,6,7-tetrahydro-5-methylimidazo-[4,5,1-jk][1,4]benzodiazepin- 2(1H)-one (TlBO) derivatives. 4” (J Med Chem, 1995).

test system: MT4; assay: Effective concentration of compound required to achieve 50% protection of MT-4 cells against the cytopathic effect of HIV-1; format: functional, cell-based; conditions: Homo sapiens

| SMILES | IC50 |
| --- | --- |
| CC(C)=CCN1Cc2cccc3[nH]c(=S)n(c23)C[C@@H]1C | 44 nM |

test system: Human immunodeficiency virus 1; assay: Concentration required for 50% protection of MT-4 cells against the cytopathic effect of HIV-1; format: functional, organism-based; conditions: Human immunodeficiency virus 1, MT4

| SMILES | IC50 |
| --- | --- |
| C[C@H]1Cn2c(=O)[nH]c3cc(N)cc(c32)CN1CC1CC1 | 60600 nM |
| CC(C)=CCN1Cc2cc(Cl)cc3[nH]c(=S)n(c23)C[C@@H]1C | 34 nM |
| CC(C)=CCN1Cc2c(C)ncc3nc(O)n(c23)CC1C (stereo unspecified) | 872000 nM |
| Cc1cn([C@H]2C[C@H](N=[N+]=[N-])[C@@H](CO)O2)c(=O)[nH]c1=O [ZIDOVUDINE] | 4.1 nM |
| CC(C)=CCN1Cc2cc(C(F)(F)F)cc3nc(S)n(c23)C[C@@H]1C | 485 nM |
| CC(C)=CCN1Cc2c(C(N)=O)ccc3[nH]c(=O)n(c23)C[C@@H]1C | 6360 nM |
| C[C@H]1Cn2c(=O)[nH]c3cc(N(C)C)cc(c32)CN1CC1CC1 | 6650 nM |
| Cc1ncc2nc(O)n3c2c1CN(CC1CC1)C(C)C3 (stereo unspecified) | 596000 nM |
| CC(C)=CCN1Cc2c(I)ccc3[nH]c(=O)n(c23)C[C@@H]1C | 88 nM |
| C[C@H]1Cn2c(=O)[nH]c3cc([N+](=O)[O-])cc(c32)CN1CC1CC1 | 33400 nM |
| CSc1ccc2[nH]c(=S)n3c2c1CN(CC=C(C)C)[C@@H](C)C3 | 5 nM |
| COc1ccc2c3c1[nH]c(=O)n3C[C@H](C)N(CC=C(C)C)C2 | 6630 nM |
| CC(C)=CCN1Cc2c(I)ccc3[nH]c(=S)n(c23)C[C@@H]1C | 47.4 nM |
| C[C@H]1Cn2c(=O)[nH]c3ccc(N)c(c32)CN1CC1CC1 | 849000 nM |
| CC(C)=CCN1Cc2c(Cl)ccc3[nH]c(=S)n(c23)C[C@@H]1C [TIVIRAPINE] | 4.3 nM |
| CC(=O)Nc1cc2c3c(c1)[nH]c(=O)n3C[C@H](C)N(CC1CC1)C2 | 159000 nM |
| C[C@H]1Cn2c(=S)[nH]c3cc([N+](=O)[O-])cc(c32)CN1CC1CC1 | 2450 nM |
| C[C@H]1Cn2c(=O)[nH]c3ccc(N(C)C)c(c32)CN1CC1CC1 | 6650 nM |
| COc1ccc2c3c1[nH]c(=S)n3C[C@H](C)N(CC=C(C)C)C2 | 4720 nM |

Further lines, results first:

| IC50 | SMILES |
| --- | --- |
| > 5940 nM | CCc1ccc2nc(O)n3c2c1CN(CC=C(C)C)[C@@H](C)C3 |
| 438 nM | C#Cc1ccc2nc(O)n3c2c1CN(CC=C(C)C)[C@@H](C)C3 |
| 25.5 nM | CC(C)=CCN1Cc2cc(Cl)c(Cl)c3nc(S)n(c23)C[C@@H]1C |
| 47.3 nM | CC(C)=CCN1Cc2c(Br)ccc3nc(O)n(c23)C[C@@H]1C |
| 1080 nM | CC(C)=CCN1Cc2ccc(Br)c3nc(S)n(c23)C[C@@H]1C |
| 13.6 nM | CC(C)=CCN1Cc2c(C)ccc3nc(S)n(c23)C[C@@H]1C |
| 25 nM | CC(C)=CCN1Cc2cc(F)cc3nc(S)n(c23)C[C@@H]1C |
| > 796000 nM | CC(=O)Nc1ccc2nc(O)n3c2c1CN(CC1CC1)[C@@H](C)C3 |
| 95.9 nM | CCOc1ccc2[nH]c(=S)n3c2c1CN(CC=C(C)C)[C@@H](C)C3 |
| 5.8 nM | CC(C)=CCN1Cc2c(F)ccc3nc(S)n(c23)C[C@@H]1C |
| 29.6 nM | C#Cc1ccc2nc(S)n3c2c1CN(CC=C(C)C)[C@@H](C)C3 |
| 1140 nM | CC(C)=CCN1Cc2c(C#N)ccc3nc(O)n(c23)C[C@@H]1C |
| 314 nM | CCC(=CCN1Cc2cc(C(C)(C)C)cc3nc(O)n(c23)C[C@@H]1C)CC |
| > 2000 nM | CCC(=CCN1Cc2c(C)ncc3nc(O)n(c23)CC1C)CC (stereo unspecified) |
| 56.3 nM | CC(C)=CCN1Cc2c(C#N)ccc3nc(S)n(c23)C[C@@H]1C |
| 989 nM | CC(C)=CCN1Cc2c(C)ccc3nc(O)n(c23)C[C@@H]1C |
| 188 nM | CC(C)=CCN1Cc2c(C=O)ccc3nc(S)n(c23)C[C@@H]1C |
| 33.9 nM | COc1ccc2[nH]c(=S)n3c2c1CN(CC=C(C)C)[C@@H](C)C3 |
| 243 nM | CCC(=CCN1Cc2c(C)ncc3nc(S)n(c23)CC1C)CC (stereo unspecified) |
| 3 nM | CC(C)=CCN1Cc2c(Br)ccc3nc(S)n(c23)C[C@@H]1C |
| 5920 nM | CC(C)=CCN1Cc2cc(C(F)(F)F)cc3nc(O)n(c23)C[C@@H]1C |
